Starred links: 1 amine or outer side, 2 acyl side, 3 side chain; linkers in the order of their positions; H or OH if unused. Positions of bridges follow the written chain, without caps; N, C: chain ends. Chains are numbered I, II in the order given. BMOE = O=C1CC([*:1])C(=O)N1CCN1C(=O)CC([*:2])C1=O
What was measured:
[1] = Cytotoxicity on normal B-cells from volunteers; format: cell-based, human; details: human, normal B-cells from volunteers
[2] = Mouse toxicity, maximum tolerated dose by intravenous injection; details: in vivo, maximum dose by intravenous injection without deaths after 24 hrs
Text: We also evaluated the various peptides for efficacy in suppressing nitric oxide production induced by LPS stimulation of BV2 microglia cells as a measure of anti-inflammatory activity as well as the maximum dose tolerated in mice (Table I and FIG. 6A). For the LPS assay, EC50 is the concentration of compound that caused a 50% suppression of nitric oxide release from BV2 cells following LPS stimulation. For mouse toxicity, MTD is the maximum dose of the compound that can be given by intravenous injection without causing deaths after 24 hrs. […] Coupling the ApoE domain to a protein transduction domain further enhanced the potency of the dimers.

PP2A = PP2A activity in 32D:BCR/Abl chronic myelogenous leukemia cells (PP2A immunoprecipitation assay); format: cell-based; details: 1 μM, 30 minutes
Procedure: FIGS. 4A-4B. The BMOE-linked dimer peptide COG449 activates PP2A in CML cells. FIG. 4A: 32D-BCR/Abl chronic myelogenous leukemia cells were treated with COG449 (1 μM), COG445 (1 μM) (disulfide-linked COG112 dimer) or no treatment, and the PP2A activity was measured. FIG. 4B: 32D:BCR/Abl cell cultures were treated with no compound, 1 μM COG449, or 5 μM FTY720 for 30 minutes followed by lysis in an NP40 lysis buffer. PP2A was immunoprecipitated and assayed with the PP2A Immunoprecipitation assay kit (Upstate) according to the manufacturer's directions.
To further evaluate the effect of COG449, we measured the ability of the stable dimerized COG449 compound to activate PP2A in 32D:p210^BCR/Abl chronic myelogenous leukemia cells. […] 32D:p210^BCR/Abl chronic myelogenous leukemia cells were treated with no compound, 1 μM COG449, or 5 μM FTY720. We observed a robust increase of approximately 45% relative specific activity (phosphate release/minute/unit protein) of PP2A upon treatment with COG449 alone when compared to the untreated control, and about 20% activation compared with FTY720 (FIG. 4B).

U87MG glioblastoma cells = format: cell-based; details: MTT
Procedure: FIG. 14A: Dose response curve of COG445 on proliferation of U87 (open circles) and MDA-MB-231 (filled circles) cells as measured by MTT reduction. FIG. 14B: Dose response curve of COG445 on proliferation of MDA-MB-231 cells as measured by cell count.
To determine whether ApoE peptide dimers were cytotoxic to other types of cancer, we evaluated the effect of three different ApoE BMOE-linked peptide dimers (COG449, COG492, COG493; see Table I) on the growth characteristics of U87MG glioblastoma cells. Various concentrations of COG449, COG492, COG493 or Sorafenib were used to treat U87MG glioblastoma cells and viable cells were quanititated using MTT. Sorafenib, which has previously been reported to be cytotoxic to glioblastoma cells (Yang et al. (2010) Mol Cancer Ther., Vol. 9(4):953-962), was used as a positive control.
Because COG445 inhibited Akt activation and downstream signaling, we examined the effects of COG445 on cellular proliferation. Adherent MB231 and U87 cells were grown for ˜24 hours in the presence of COG445 and cellular proliferation was measured by MTT reduction. […] Furthermore, COG445 inhibited MB231 cellular proliferation as determined by cell count (FIG. 14B). Approximately 6×10^4 cells were plated in growth media (RPMI+10% FBS) for 24-hours with increasing concentrations of COG445. […] However at concentrations ≧1 μM COG445, there appears to be a loss of cells. This is partially explained by decreased proliferation, although it is possible that the rate of cellular degradation was increased in the presence of COG445.

CLL cells = details: 24 h
Procedure: We next sought to determine whether SET antagonism would destabilize Mcl-1. Destabilization of Mcl-1 by treatment with SET antagonists was evaluated by treating primary human CLL cells for 24 hr with the ApoE peptide dimer COG449 (a BMOE-linked dimer of COG112; see Example 2) and evaluating the level of Mcl-1 in the cells.

[3] = system: Ramos cell line of Burkitt's lymphoma; assay: Growth of Ramos cells in culture; format: cell-based; details: read-out: EC50 growth inhibition in culture
breast cancer cell lines = assay: Cytotoxicity in breast cancer cell lines by cell counting; format: cell-based, human; details: serum-free media, 24 hrs
Procedure: FIG. 28. Cytotoxic effects of COG449 in breast cancer cells. Cell lines were grown in serum-free media and COG449 as indicated for 24 hrs. Cellular proliferation was measured by cell counting. Cell number is represented relative to control, untreated cells.

MDA-231 cells = assay: Combination treatment of MDA-231 cells (MTT); format: cell-based; details: sub-lethal doses, 48 hrs, greater than either compound alone
Procedure: FIG. 29. Combination treatment with COG449 and sorafenib or gefitinb on triple negative breast cancer (TNBC) cell line growth. MDA-231 cells were grown in the presence of COG449, sorafenib, or gefitinb at sub-lethal doses as indicated. After 48 hrs, live cells were quantified using the MTT assay. *** indicates p<0.001.
(§1) To begin assessment of the potential of combination therapies with COG449, we analyzed the effect of treating MDA-231 cells with sub-lethal doses of COG449 and the multi-kinase inhibitor Sorafenib or the EGFR inhibitor Gefitinib at concentrations below their ED50 doses. […] We also evaluated the effects of COG449 in vivo using xenograft experiments. To determine whether COG449 might be effective against TNBC tumors in xenografts, immune compromised NOD/SCID gamma-chain null (NSG) mice were injected with MDA-231 cells into their 4th mammary glands. Once tumors became palpable at around 10 days, tumors were treated by […] subcutaneous injection of COG449 at 10 mg/kg. At 28 days post-xenograft, daily intra-tumor injection of COG449 was initiated and continued until sacrifice (FIG. 30A). In order to use a more clinically relevant treatment paradigm, MDA-231 xenografted mice were treated 3-times a week with 1 mg/kg COG449 by intravenous injection (FIG. 30B).

MDA-MB-231 xenografts = assay: MDA-MB-231 TNBC xenografts in NSG mice; format: in vivo; details: both xenograft studies
Procedure: FIGS. 30A-30B. Inhibition of triple negative breast cancer (TNBC) tumor growth in xenografts with COG449 treatment. FIG. 30A: 4×10^6 MDA-MB-231 cells were injected with Matrigel into the 4th mammary glands of immune compromised mice and treated daily by subcutaneous injection of 10 mg/kg COG449 starting at day 10. FIG. 30B: 4×10^6 MDA-MB-231 cells were injected with Matrigel into the 4th mammary glands of immune compromised mice and treated by intravenous tail vein injection 3× week at 1 mg/kg starting at day 27 post injection. Tumor volume was determined by caliper measurement.
as §1, with “In order to use a more clinically relevant treatment paradigm, MDA-231 xenografted mice were treated 3-times a week with 1 mg/kg COG449 by intravenous injection (FIG. 30B).” left out

[4] = Tolerability of COG449 by intravenous infusion; format: in vivo

For “I: Ac-RQIKIWFQNRRMKWKKCLRVRLASHLRKLRKRLL-NH2 / II: Ac-RQIKIWFQNRRMKWKKCLRVRLASHLRKLRKRLL-NH2 (linker I:17-II:17 via BMOE) [COG449, COG112-C-BMOE-C-COG112]”, the EC50 at 72 h [1] was > 10000 nM, the MTD at 24 h [2] was 12 mg/kg and the “increase of relative specific activity of PP2A compared to untreated control” value (PP2A) was “approximately 45%”. For the same substance, the “cytotoxicity to U87MG cells” value (U87MG glioblastoma cells) was “cytotoxic”, the EC50 (CLL cells) was ~110 nM and the EC50 [3] was 125 nM. For the same substance, the “cytotoxicity to breast cancer cell lines incl. MDA-231, MDA-468, HCC38” value (breast cancer cell lines) was “cytotoxic to all cell lines”, the “cytotoxic effect in combination with Gefitinib” value (MDA-231 cells) was “robust cytotoxic effect” and the “cytotoxic effect in combination with Sorafenib” value (MDA-231 cells) was “robust cytotoxic effect”. The “cytotoxic effects in mice” value (MDA-MB-231 xenografts) was “No cytotoxic effects”, the first adverse events ([4]; 20 mg/kg) was “mild edema in the front paws and lethargy” and the adverse effects ([4]; intravenous infusion, 10-15 mg/kg) was “without any observed adverse effects”.

From patent publication US9809640B2, “ApoE peptide dimers and uses thereof” (priority 2010, dated 2017)
